Test [1] addresses T1, KRas G12D (Homo sapiens (Human), UniProt P01116, G12D). Briefly: KRas G12D Surface Plasmon Resonance (SPR) Binding Assay. As to conditions: Biacore T200, immobilized biotinylated KRAS protein, 1:1 binding model.
Target sequence in this assay (P01116-2 other isoform, or with tags, fused parts or gaps G12D): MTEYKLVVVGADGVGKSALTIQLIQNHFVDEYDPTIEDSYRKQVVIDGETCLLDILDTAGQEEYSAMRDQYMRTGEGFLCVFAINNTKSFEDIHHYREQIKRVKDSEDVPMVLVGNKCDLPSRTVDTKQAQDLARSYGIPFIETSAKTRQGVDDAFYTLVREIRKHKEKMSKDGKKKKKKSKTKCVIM
In test [2] the target is T1, KRas G12D. Nature of the test: KRas G12D Binding Assay (TR-FRET displacement of Cy5 labelled tracer). As to conditions: GDP-loaded KRAS G12D (amino acids 1:169), 60 minute incubation at 22° C. As for the experimental part: After a 60 minute incubation at 22° C., the reaction was measured using a PerkinElmer EnVision multimode plate reader via TR-FRET dual wavelength detection, and the percent of control (POC) calculated using a ratiometric emission factor. […] The POC values were fit to a 4-parameter logistic curve and the IC50 value was determined as the concentration where the curve crosses 50 POC.
ND stands for “not determined.”
Target sequence in this assay (P01116 other isoform, or with tags, fused parts or gaps G12D): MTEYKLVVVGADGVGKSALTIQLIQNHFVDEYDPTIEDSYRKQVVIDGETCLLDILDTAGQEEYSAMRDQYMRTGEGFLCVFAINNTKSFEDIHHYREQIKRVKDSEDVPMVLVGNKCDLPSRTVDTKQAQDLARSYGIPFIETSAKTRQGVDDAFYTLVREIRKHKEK
(In general: TR-FRET usually uses a lanthanide donor and a delayed reading to cut background.)

Where a name gives a salt, the structure may show the parent alone.

With `Oc1cc(-c2ncc3c(N4C[C@H]5CC[C@@H](C4)N5)nc(OCCCN4CCOCC4)nc3c2F)c2ccccc2c1` [Example 22, 4-(4-((1R,5S)-3,8-diazabicyclo[3.2.1]octan-3-yl)-8-fluoro-2-(3-morpholinopropoxy)pyrido[4,3-d]pyrimidin-7-yl)naphthalen-2-ol], the affinity in test [1], expressed as Kd, was 19.6 nM. In addition, in test [2], the IC50 (commonly the point on the concentration scale where inhibition reaches its midpoint) came to 50.3 nM.
For `Fc1c(-c2cccc3cccc(Cl)c23)ncc2c(N3C[C@H]4CC[C@@H](C3)N4)nc(OCC3COC3)nc12` [Example 53, 4-((1R,5S)-3,8-diazabicyclo[3.2.1]octan-3-yl)-7-(8-chloronaphthalen-1-yl)-8-fluoro-2-(oxetan-3-ylmethoxy)pyrido[4,3-d]pyrimidine] the same measures were 4370 nM and 1880 nM.
For `Oc1cc(-c2ncc3c(N4C[C@H]5CC[C@@H](C4)N5)nc(OCCc4ncccn4)nc3c2F)c2ccccc2c1` [Example 7, 4-(4-((1R,5S)-3,8-diazabicyclo[3.2.1]octan-3-yl)-8-fluoro-2-(2-(pyrimidin-2-yl)ethoxy)pyrido[4,3-d]pyrimidin-7-yl)naphthalen-2-ol] the same measures were 464 nM and 1870 nM.
For `COc1nc(N2C[C@H]3CC[C@@H](C2)N3)c2cnc(-c3cc(O)cc4ccccc34)c(F)c2n1` [Example 105, 4-(4-((I R,5S)-3,8-diazabicyclo[3.2.1]octan-3-yl)-8-fluoro-2-methoxypyrido[4,3-d]pyrimidin-7-yl)naphthalen-2-ol] the same measures were 2260 nM and 867 nM.
As for `Oc1cc(-c2ncc3c(N4C[C@H]5CC[C@@H](C4)N5)nc(OCCc4ccccc4)nc3c2F)c2ccccc2c1` [Example 96, 4-(4-((1R,5S)-3,8-diazabicyclo[3.2.1]octan-3-yl)-8-fluoro-2-phenethoxypyrido[4,3-d]pyrimidin-7-yl)naphthalen-2-ol], in test [1], the Kd – broadly, the equilibrium constant for the complex coming apart – was 710 nM. The same compound yielded an IC50 in test [2] of 2220 nM.
For `CN1CCC[C@H]1COc1nc(N2C[C@H]3CC[C@@H](C2)N3)c2cnc(-c3cc(O)c(Br)c4ccccc34)c(F)c2n1` [Example 14, 4-(4-((1R,5S)-3,8-diazabicyclo[3.2.1]octan-3-yl)-8-fluoro-2-(((S)-1-methylpyrrolidin-2-yl)methoxy)pyrido[4,3-d]pyrimidin-7-yl)-1-bromonaphthalen-2-ol] the same measures were 5.1 nM and 73.9 nM.
For `Fc1ccc2cccc(-c3ncc4c(N5C[C@H]6CC[C@@H](C5)N6)nc(OCCc5cccnc5)nc4c3F)c2c1` [Example 90, 4-((1R,5S)-3,8-diazabicyclo[3.2.1]octan-3-yl)-8-fluoro-7-(7-fluoronaphthalen-1-yl)-2-(2-(pyridin-3-yl)ethoxy)pyrido[4,3-d]pyrimidine] the same measures were 7810 nM and 4490 nM.
For `O[C@@H]1C[C@@H]2CN(c3nc(OC[C@@]45CCCN4C[C@H](F)C5)nc4c(F)c(-c5cccc6cccc(Cl)c56)ncc34)C[C@H]1N2` [Example 395, (1R,5R,6R)-3-(7-(8-chloronaphthalen-1-yl)-8-fluoro-2-((2-fluorotetrahydro-1H-pyrrolizin-7a(5H)-yl)methoxy)pyrido[4,3-d]pyrimidin-4-yl)-3,8-diazabicyclo[3.2.1]octan-6-ol] the same measures were 2.6 nM and 6.9 nM.
Regarding `Cc1cccc(F)c1-c1ncc2c(N3C[C@H]4CC[C@@H](C3)N4)nc(OCCc3nccn3C)nc2c1F` [Example 316, 4-((1R,5S)-3,8-diazabicyclo[3.2.1]octan-3-yl)-8-fluoro-7-(2-fluoro-6-methylphenyl)-2-(2-(1-methyl-1H-imidazol-2-yl)ethoxy)pyrido[4,3-d]pyrimidine], in test [1], binding was characterised by a dissociation constant (Kd) of 157000 nM. In addition, in test [2], the IC50 was greater than 10000 nM.
For `OCC(COc1nc(N2C[C@H]3CC[C@@H](C2)N3)c2cnc(-c3cccc4cccc(Cl)c34)c(F)c2n1)c1cccnc1` (stereo partly drawn) [Example 59, 3-((4-((1R,5S)-3,8-diazabicyclo[3.2.1]octan-3-yl)-7-(8-chloronaphthalen-1-yl)-8-fluoropyrido[4,3-d]pyrimidin-2-yl)oxy)-2-(pyridin-3-yl)propan-1-ol] the same measures were 1120 nM and 946 nM.
As for `CN1CCC[C@H]1COc1nc(N2C[C@H]3CC[C@@H](C2)N3)c2cnc(-c3cncc4cccc(Cl)c34)c(F)c2n1` [Example 151, 4-((1R,5S)-3,8-diazabicyclo[3.2.1]octan-3-yl)-7-(5-chloroisoquinolin-4-yl)-8-fluoro-2-(((S)-1-methylpyrrolidin-2-yl)methoxy)pyrido[4,3-d]pyrimidine], the Kd in test [1] was found to be 448 nM. The compound further registered an IC50 in test [2] of 388 nM.
In the case of `Oc1cc(-c2ncc3c(N4C[C@H]5CC[C@@H](C4)N5)nc(N4CC(O)C4)nc3c2F)c2ccccc2c1` [Example 37, 1-(4-((1R,5S)-3,8-diazabicyclo[3.2.1]octan-3-yl)-8-fluoro-7-(3-hydroxynaphthalen-1-yl)pyrido[4,3-d]pyrimidin-2-yl)azetidin-3-ol bis(2,2,2-trifluoroacetate)], the Kd in test [1] worked out at 494 nM. In test [2], this compound came in with an IC50 of 405 nM.
For `Oc1cc(-c2ncc3c(N4C[C@H]5CC[C@@H](C4)N5)nc(OCC45CCCN4CCC5)nc3c2F)c2ccccc2c1` [Example 109, 4-(4-((1R,5S)-3,8-diazabicyclo[3.2.1]octan-3-yl)-8-fluoro-2-((tetrahydro-1H-pyrrolizin-7a(5H)-yl)methoxy)pyrido[4,3-d]pyrimidin-7-yl)naphthalen-2-ol bis(2,2,2-trifluoroacetate)] the same measures were greater than 500000 nM and 0.5 nM.
`COCCCOc1nc(N2C[C@H]3CC[C@@H](C2)N3)c2cnc(-c3cc(O)cc4ccccc34)c(F)c2n1` [Example 68, 4-(4-((1R,5S)-3,8-diazabicyclo[3.2.1]octan-3-yl)-8-fluoro-2-(3-methoxypropoxy)pyrido[4,3-d]pyrimidin-7-yl)naphthalen-2-ol]: in test [1], the affinity, expressed as Kd, was 293 nM. The half-maximal inhibitory concentration (IC50) in test [2] turned out to be 257 nM.
For `Oc1cc(-c2ncc3c(N4C[C@H]5CC[C@@H](C4)N5)nc(OC4CCC(F)(F)CC4)nc3c2F)c2ccccc2c1` [Example 80, 4-(4-((1R,5S)-3,8-diazabicyclo[3.2.1]octan-3-yl)-2-((4,4-difluorocyclohexyl)oxy)-8-fluoropyrido[4,3-d]pyrimidin-7-yl)naphthalen-2-ol] the same measures were greater than 500000 nM and 647 nM.
In test [1], `Cn1ccnc1CCOc1nc(N2C[C@H]3CC[C@@H](C2)N3)c2cnc(-c3cc(O)cc4ccccc34)c(F)c2n1` [Example 3, 4-(4-((1R,5S)-3,8-diazabicyclo[3.2.1]octan-3-yl)-8-fluoro-2-(2-(1-methyl-1H-imidazol-2-yl)ethoxy)pyrido[4,3-d]pyrimidin-7-yl)naphthalen-2-ol] came in with a dissociation constant (Kd) of 8.3 nM. The same compound returned a half-maximal inhibitory concentration (IC50) in test [2] of 9.5 nM.
Compound `OC[C@@H]1CCCN1c1nc(N2C[C@H]3CC[C@@H](C2)N3)c2cnc(-c3cc(O)cc4ccccc34)c(F)c2n1` [Example 77, 4-(4-((1R,5S)-3,8-diazabicyclo[3.2.1]octan-3-yl)-8-fluoro-2-((S)-2-(hydroxymethyl)pyrrolidin-1-yl)pyrido[4,3-d]pyrimidin-7-yl)naphthalen-2-ol] came in with a Kd in test [1] of 3070 nM. In test [2], the IC50 is 3140 nM.
In test [1], `CN1CCC[C@H]1COc1nc(N2CC3CCC(C2)N3)c2cnc(-c3cccc4c3CCC4O)c(F)c2n1` (stereo partly drawn) [Example 318, 4-(4-((1R,5S)-3,8-diazabicyclo[3.2.1]octan-3-yl)-8-fluoro-2-(((S)-1-methylpyrrolidin-2-yl)methoxy)pyrido[4,3-d]pyrimidin-7-yl)-2,3-dihydro-1H-inden-1-ol] came in with a Kd of 368000 nM. Moreover, in test [2], the IC50 was greater than 10000 nM.
`C[C@H](CN(C)C)Oc1nc(N2C[C@H]3CC[C@@H](C2)N3)c2cnc(-c3cc(O)cc4ccccc34)c(F)c2n1` [Example 17, 4-(4-((1R,5S)-3,8-diazabicyclo[3.2.1]octan-3-yl)-2-(((R)-1-(dimethylamino)propan-2-yl)oxy)-8-fluoropyrido[4,3-d]pyrimidin-7-yl)naphthalen-2-ol] had a Kd in test [1] of 2210 nM. In test [2], the IC50 was 666 nM.
For `CC1CCCc2cccc(-c3ncc4c(N5CC6CCC(C5)N6)nc(OC[C@@H]5CCCN5C)nc4c3F)c21` (stereo partly drawn) [Example 133, 4-((I R,5S)-3,8-diazabicyclo[3.2.1]octan-3-yl)-8-fluoro-7-(8-methyl-5,6,7,8-tetrahydronaphthalen-1-yl)-2-(((S)-1-methylpyrrolidin-2-yl)methoxy)pyrido[4,3-d]pyrimidine] the same measures were 113 nM and 48.8 nM.
For `CO[C@@H]1C[C@@H]2CN(c3nc(OC[C@@]45CCCN4C[C@H](F)C5)nc4c(F)c(-c5cccc6cccc(Cl)c56)ncc34)C[C@H]1N2` [Example 397, 7-(8-chloronaphthalen-1-yl)-8-fluoro-2-((2-fluorotetrahydro-1H-pyrrolizin-7a(5H)-yl)methoxy)-4-((1R,5R,6R)-6-methoxy-3,8-diazabicyclo[3.2.1]octan-3-yl)pyrido[4,3-d]pyrimidine] the same measures were 183 nM and 887 nM.
For `Oc1cc(-c2ncc3c(N4C[C@H]5CC[C@@H](C4)N5)nc(OCCC(F)(F)F)nc3c2F)c2ccccc2c1` [Example 81, 4-(4-((1R,5S)-3,8-diazabicyclo[3.2.1]octan-3-yl)-8-fluoro-2-(3,3,3-trifluoropropoxy)pyrido[4,3-d]pyrimidin-7-yl)naphthalen-2-ol] the same measures were 321 nM and 153 nM.
Compound `CN1CCC[C@H]1COc1nc(N2C[C@H]3CC[C@@H](C2)N3)c2cnc(-c3cc(O)cc4ccccc34)cc2n1` [Example 1, 4-(4-((1R,5S)-3,8-diazabicyclo[3.2.1]octan-3-yl)-2-(((S)-1-methylpyrrolidin-2-yl)methoxy)pyrido[4,3-d]pyrimidin-7-yl)naphthalen-2-ol tris-hydrochloride salt] registered an equilibrium dissociation constant (Kd) in test [1] of 97.7 nM. The concentration for half-maximal inhibition (IC50) in test [2] worked out at 125 nM.

Source of the values: patent US20230279025A1, “KRAS G12D INHIBITORS” (Mirati Therapeutics, Inc., priority 2020, published 2023).
